These results are taken from ChEMBL document CHEMBL1201862, “PubChem BioAssay data set” (2004).

Each structure is given as a SMILES string.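 Results reflect a 48-hour exposure of cells in 96-well plates to compound at five concentrations. GI50 marks 50% less growth.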 Calls of active or inactive are those of the source. Cut-off read from the data, not from the text of the source: active = GI50 up to about 1.1 µM and inactive = higher.

Some test systems named below: NCI-H226; LOX IMVI; NCI-H460; SK-OV-3; SF-295; OVCAR-8; 786-0; NCI-H522; SN12C; HOP-92; UACC-62; SR; HCC 2998; RXF 393; SW-620; SK-MEL-28.
Common to all, as to test: NCI tumour cell line growth inhibition, 48 h

Consider `C/C(=N\Nc1ccc([N+](=O)[O-])cc1)C(=O)N(C)Nc1ccccc1`, for which the GI50 was 38.9 µM (inactive) with NCI-H226; 64.4 µM (inactive) with LOX IMVI; 47.1 µM (inactive) in the assay with NCI-H460; > 100 µM (inactive) in the assay on SK-OV-3; 34.5 µM (inactive) in the assay with SF-295; 51.4 µM (inactive) with OVCAR-8. Further, the GI50 in the assay with 786-0 is > 100 µM (inactive); with NCI-H522 it was 52.8 µM (inactive); in the assay with SN12C, 74 µM (inactive); with HOP-92, 53.7 µM (inactive); in the assay with UACC-62 it was 45.2 µM (inactive); with SR, 47.8 µM (inactive). In addition, the GI50 in the assay on HCC 2998 is 33.8 µM (inactive); in the assay with RXF 393, 58.1 µM (inactive); in the assay on SW-620, > 100 µM (inactive).
For the molecule `COc1ccc(/C=c2/sc3n(c2=O)NC2(CCCCC2)NN=3)cc1`, the GI50 in the assay with NCI-H226, with SK-MEL-28, with LOX IMVI, in the assay with NCI-H460, in the assay on SK-OV-3 and with SF-295 was > 100 µM (inactive) each time. Besides, the GI50 in the assay with OVCAR-8, in the assay on 786-0, in the assay on NCI-H522, in the assay with SN12C, in the assay on HOP-92 and in the assay with UACC-62 was > 100 µM (inactive) throughout. The GI50 in the assay with SR, with HCC 2998, in the assay on RXF 393 and with SW-620 was > 100 µM (inactive) each time.
`CC1CC[C@]2(C(=O)O)CCC3(COC(=O)/C=C\c4ccc(O)cc4)C(=CCC4[C@@]5(C)CC[C@H](O)C(C)(C)C5CC[C@]43C)[C@@H]2[C@H]1C` (some centres undefined): the GI50 in the assay with NCI-H226 was 18.5 µM (inactive); in the assay with SK-MEL-28, 20 µM (inactive); in the assay with LOX IMVI, 14.1 µM (inactive); in the assay with NCI-H460 it was 15.7 µM (inactive); in the assay on SK-OV-3, 3.5 µM (inactive); with SF-295, 17.1 µM (inactive). Also, the GI50 in the assay with OVCAR-8 is 20.1 µM (inactive); with 786-0, 21.3 µM (inactive); with NCI-H522, 17.5 µM (inactive); with SN12C, 20.8 µM (inactive); in the assay on UACC-62, 17.2 µM (inactive); with SR, 20.6 µM (inactive). The GI50 in the assay with HCC 2998 was 17.2 µM (inactive); with RXF 393 it was 17.5 µM (inactive); with SW-620 it was 27.9 µM (inactive).
For `CC(=O)NC1=C(NCCC(C)C)C(=O)c2ccccc2C1=O`, the GI50 with NCI-H226, with SK-MEL-28, with LOX IMVI, with NCI-H460, in the assay on SK-OV-3 and in the assay with SF-295 was > 50 µM (inactive) each time. Also, the GI50 in the assay on OVCAR-8, with 786-0, in the assay with NCI-H522, with SN12C, with HOP-92 and in the assay with UACC-62 was > 50 µM (inactive) in each case. Moreover, the GI50 in the assay on SR, with HCC 2998, with RXF 393 and in the assay on SW-620 was > 50 µM (inactive) throughout.
On to `CC12CCC[C@@](C)(C(=O)OC3OC(CO)C(O)C(O)C3O)[C@H]1CCC13CC4CC(OC4(CO)[C@H]1O)[C@@H]23` (some centres undefined), for which the GI50 in the assay on NCI-H226, in the assay on SK-MEL-28, in the assay on NCI-H460, with SK-OV-3, in the assay on SF-295 and in the assay on OVCAR-8 was > 100 µM (inactive) throughout. Besides, the GI50 in the assay on 786-0, in the assay with NCI-H522, in the assay on SN12C, in the assay with HOP-92, in the assay on UACC-62 and with SR was > 100 µM (inactive) in each case. Also, the GI50 is > 100 µM (inactive) in the assay on HCC 2998, > 100 µM (inactive) with RXF 393 and 14.5 µM (inactive) with SW-620.
In the case of `CC1CC2C3CC(F)C4=CC(=O)C=CC4(C)C3(F)C(O)CC2(C)C1(O)C(=O)CO` (centres undefined), the GI50 with NCI-H226 is > 100 µM (inactive); with SK-MEL-28, > 100 µM (inactive); in the assay on LOX IMVI, > 100 µM (inactive); in the assay with NCI-H460, > 100 µM (inactive); in the assay on SK-OV-3 it was < 0.01 µM (active); with SF-295, > 100 µM (inactive). Moreover, the GI50 with 786-0, in the assay on NCI-H522, in the assay on HOP-92, in the assay on UACC-62, with SR and in the assay with HCC 2998 was > 100 µM (inactive) each time. Moreover, the GI50 in the assay on RXF 393 and in the assay with SW-620 was > 100 µM (inactive) each time.
For `O=C1CC(c2ccc(Cl)cc2)=Nc2ccccc2N1`, the GI50 in the assay on NCI-H226 was > 100 µM (inactive); in the assay on SK-MEL-28, > 100 µM (inactive); in the assay with LOX IMVI, 24.2 µM (inactive); with NCI-H460 it was 34.7 µM (inactive); in the assay with SK-OV-3 it was 32.7 µM (inactive); in the assay with SF-295, 86.7 µM (inactive). The GI50 with OVCAR-8 is 25.9 µM (inactive); in the assay with 786-0 it was 36.1 µM (inactive); with NCI-H522 it was 40.9 µM (inactive); with SN12C it was 46.7 µM (inactive); in the assay on HOP-92, 26.4 µM (inactive); with UACC-62 it was > 100 µM (inactive). The GI50 in the assay on SR was 37.8 µM (inactive); with HCC 2998, 97.1 µM (inactive); with RXF 393 it was 29.9 µM (inactive); in the assay on SW-620, 18.8 µM (inactive).
For `CN(C)CCNc1ccc2ncn3c4ccccc4c(=O)c1c23`, the GI50 with NCI-H226 was 1.91 µM (inactive); in the assay on SK-MEL-28, 3.93 µM (inactive); in the assay on LOX IMVI, 1.15 µM (inactive); in the assay on NCI-H460 it was 0.805 µM (active); in the assay on SK-OV-3 it was 2.09 µM (inactive); in the assay with SF-295, 2.47 µM (inactive). Also, the GI50 in the assay on OVCAR-8 is 1.15 µM (inactive); in the assay on 786-0 it was 2.03 µM (inactive); in the assay with NCI-H522, 1.29 µM (inactive); with SN12C, 2.9 µM (inactive); in the assay on HOP-92, 2.3 µM (inactive); in the assay with UACC-62, 3.22 µM (inactive). Further, the GI50 was 0.822 µM (active) in the assay on SR and 0.826 µM (active) with SW-620.
As to `COC(=O)C(Cc1nc2ccccc2nc1O)C(NO)C(=O)Nc1c(Cl)cc([N+](=O)[O-])cc1Cl` (centres undefined), the GI50 was 30.9 µM (inactive) in the assay on SK-MEL-28; 20.7 µM (inactive) in the assay with NCI-H460; 37.9 µM (inactive) in the assay on SK-OV-3; 27.7 µM (inactive) in the assay on SF-295; 30.4 µM (inactive) in the assay with OVCAR-8; 40.6 µM (inactive) with 786-0. The GI50 in the assay on NCI-H522 is 15.5 µM (inactive); in the assay on SN12C, 45.3 µM (inactive); with HOP-92 it was 5.56 µM (inactive); with UACC-62, 18 µM (inactive); in the assay with SR, 31.3 µM (inactive); with HCC 2998, 59.6 µM (inactive). Also, the GI50 with RXF 393 was 16.5 µM (inactive).
